Publication PMC6137146, “A small molecule targeting myoferlin exerts promising anti-tumor effects on breast cancer” (Nature Communications, 2018)

Target: T1, myoferlin (MYOF) (Homo sapiens, UniProt Q9NZM1)
T1 construct: C2D domain (F3 construct, amino acids 1116–1272, GST fusion in pGEX4T-1; ~44 kDa in SPR)
T1 sequence (Q9NZM1 1116-1272): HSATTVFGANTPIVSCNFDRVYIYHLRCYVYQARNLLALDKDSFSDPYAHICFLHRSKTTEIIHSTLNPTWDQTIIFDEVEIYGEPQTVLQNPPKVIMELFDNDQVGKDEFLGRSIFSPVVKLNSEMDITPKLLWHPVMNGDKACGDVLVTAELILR
Test: SPR (Biacore X-100, C2D immobilized on CM5 chip); supported by competition pull-down with WJ460-biotin
Format: binding

Kd: ~1.33 µM
SMILES: COc1ccccc1N1C(=O)CSC1c1cccc(C(=O)NCCCCc2ccccc2)c1 (stereo not shown) [WJ460]
